Experimental data taken from PMC8402609, “Guiding the Immune Response to a Conserved Epitope in MSP2, an Intrinsically Disordered Malaria Vaccine Candidate” (Vaccines, 2021).
Read-outs that look alike come from different tables or passages of the source. Where a SMILES comes first, the peptide text is derived from it. Bridges are numbered along the chain shown (N, C = ends).

Key:
4D11 IgG = assay: SPR competition binding assay, mAb 4D11; set-up: species or system mouse; conditions: read-out: Kd against 4D11 IgG
Description: (§1) Affinities for peptide epitopes and dimer peptides to 4D11 and 9H4 IgG were measured by surface plasmon resonance (SPR) (Biacore T200, GE Healthcare, Parramatta, Australia) using a competition assay method developed previously. First, 3D7 MSP2 was immobilised on a CM5 chip. To determine binding, eight three-fold dilutions of peptide, from 10 µM stock were added with 50 nM 4D11/9H4 IgG to compete with the immobilised antigen. A standard curve was established by flowing eight two-fold dilutions of 4D11 or 9H4 IgG from a 100 nM stock solution.
Following the MD simulations, each peptide was synthesised by standard Fmoc synthesis. Orthogonal protection of cysteines was used to ensure that the desired disulfide bond was formed, leaving a single free cysteine for conjugation to an appropriate carrier for immunisation. […] Consequently, disulfide bond formation and cyclisation coupling were performed in solution. To determine if the additions incorporated into the dimer sequence hindered binding to 4D11, SPR was used to measure their binding affinity to the mAb (Table 2). […] For immunisations, the commonly used carrier protein, keyhole limpet hemocyanin (KLH) was chosen. As conjugation to KLH required a free thiol, an additional cysteine residue was included in all of the peptides (Figure 2).

3D7 merozoites = assay: Merozoite ELISA with pooled mouse sera, 3D7 merozoites; type: in vivo, P. falciparum; conditions: pooled sera of immunised mice, two-fold dilutions from 1:500; merozoites 1 × 10^7/well; OD 450 nm; rank order in words
Description: The reactivity of mouse polyclonal antibodies with merozoites was determined by ELISA using merozoites from both the 3D7 and FC27 (D10 clone) strains of P. falciparum. The parasites were cultured in human erythrocytes at a haematocrit of 3% in RPMI media supplemented with […]. Viable merozoites were isolated as described previously. Highly synchronised late-stage schizonts were magnet-purified via a MACS magnet separation column (Miltenyi Biotec, Macquarie Park, Australia) and treated with E64 protease inhibitor (ThermoFisher Scientific, Scoresby, Australia) until mature merozoites were formed. Merozoites were released forcing them through a 1.2 µm filter.
Purified whole merozoites were resuspended in PBS supplemented with a cocktail of protease inhibitors (Roche, Castle Hill, Australia). Isolated merozoites were used to coat Nunc Maxisorp™ plates at 1 × 10^7/well and incubated overnight at 4 °C. The plates were then blocked with 1% casein in PBS at 37 °C for 2 h (or overnight at 4 °C). Pooled sera samples were added to wells at two-fold serial dilution in duplicate with a starting dilution of 1:500 and incubated at RT for 1 h. The plates were further incubated with HRP-conjugated goat anti-mouse IgG antibody diluted at 1:1000 in 0.1% casein in PBS at RT for 1 h. The plates were washed six times with PBS between each incubation step. Finally, 3,3′,5,5′-tetramethylbenzidine (TMB) substrate (Thermo Fisher Scientific, Scoresby, Australia) was added to the wells for the development of colour for 15 min and the reaction was stopped with 1 M sulfuric acid. The OD was measured at 450 nm.
The ability to induce an immune response that can recognise parasite MSP2 is essential in the design of an MSP2-based peptide vaccine. We isolated merozoites from both 3D7 and FC27 (D10 clone) strains of P. falciparum, coated them on ELISA plates and probed them with sera from the immunised mice (Figure 6). mAb 4D11 and the MSP2 mix pre-bleed were also included as positive and negative controls, respectively.

[1] = tested on: biotinylated 13-residue peptides (A-I) spanning the C-terminal region of MSP2; assay: Fine specificity of antisera by peptide array ELISA (peptides A-I); type: in vivo, mouse; conditions: individual sera of mice immunised with peptide-KLH conjugate or MSP2 mix, diluted 1:1000; indirect ELISA; peptides C-D span 9H4 epitope, E-G span 4D11 epitope
Description: Peptide was conjugated to maleimide-activated KLH (Sigma-Aldrich) following the manufacturer’s protocol. Briefly, 1 mg of each peptide was mixed with 1 mg KLH in the provided buffer for a 200-fold molar excess of peptide to carrier protein. The reaction mixture was degassed under nitrogen and mixed at room temperature (RT) for 2 h. Any unreacted peptide was removed by dialysis against PBS using a 10 kDa cut-off membrane. The extent of conjugation was determined using Ellman’s reagent. Peptide-KLH conjugate stock solution was stored at 4 °C until further use. Prior to immunisation, peptide-KLH conjugates were diluted to 1 mg/mL in PBS and formulated with Montanide ISA720 at an antigen:adjuvant ratio of 3:7 and a final concentration of 0.3 mg/mL. The 3D7 + FC27 MSP2 mix was formulated using 0.15 mg/mL of each allelic form. Female C57BL/6 mice (n = 6 per group) were inoculated subcutaneously with 100 µL containing 30 µg of antigen at weeks 0, 4 and 8, then euthanised at week 10. Sera were collected and stored at −80 °C.
To determine peptide-KLH binding to 4D11 and 9H4, Maxisorp 96-well microtitre plates (Nunc, Rochester, NY, USA) were coated overnight at 4 °C with 2 µg/mL peptide-KLH in PBS. The plates were blocked with 1% BSA in PBS for 1 h before adding 100 µL of 4D11 and 9H4 IgG in eleven half log10 serial dilutions starting from stock at 1 µg/mL. After 1 h incubation at 4 °C and washing, antigen-bound antibodies were detected with goat anti-mouse IgG (1:2000 dilution) and freshly prepared 2,2-azinobis(3-ethylbenzthiazolinesulfonic acid (ABTS) substrate (1 mm) in citric acid buffer, pH 4.2, containing […]. The absorbance was read at 405 nm using a microplate reader. For determination of peptide-specific antibody titres, peptide-BSA conjugate was coated on the plate at 2 µg/mL. Individual mouse sera were added at a starting dilution of 1000-fold with six half log10 serial dilutions. Endpoint titres were taken as the x-axis intercept of the dilution curve at an absorbance value of three standard deviations (s.d.) greater than OD405 for naïve mouse serum. The fine specificities of the antisera were determined by ELISA using an array of nine biotinylated 13-residue peptides (A-I), which overlap by 2 or 3 residues and spanned the C-terminal region of MSP2 [11, 13]. Maxisorp 96-well microtitre plates (Nunc) were coated overnight at 4 °C with 1 µg/mL streptavidin in PBS. The plates were blocked with 1% BSA in PBS for 2 h before adding 1:500 biotinylated peptides. Individual sera samples were diluted 1:1000 in blocking solution before addition to the peptide array. Antibody was detected with the same protocol as mentioned above.
To characterise the response against these dimeric peptides further, the specificity of the induced antibodies was determined by indirect ELISA using an array of nine biotinylated peptides that spanned the epitopes recognised by the 4D11 and 9H4 mAbs (peptides A-I) (Table 3). Peptides C and D spanned the 9H4 epitope, whilst peptides E to G spanned the 4D11 epitope. […] However, the response against MSP2 was largely dominated by a single mouse in the group.

9H4 IgG = assay: SPR competition binding assay, mAb 9H4; set-up: species or system mouse; conditions: SPR competition assay (Biacore T200); 3D7 MSP2 immobilised on CM5 chip; eight three-fold dilutions of peptide from 10 µM with 50 nM 9H4 IgG; alanine scan of 16-residue MSP2_207–222; read-out: Kd against 9H4 IgG
Description: as §1
In our previous work, the minimal epitope and key residues involved in 4D11 binding were defined as the 8-residue peptide 3D7-MSP2_215–222, with Lys216, Glu217 and Asn218 crucial for binding. To characterise the epitope of 9H4 and compare it with that of 4D11, the same alanine-scan peptides were used to probe 9H4 binding (Figure 1A,B). Affinities for 9H4 binding were measured by SPR, using a competition binding assay described previously.

[2] = SPR competition binding assay, peptides for KLH conjugation (Table 2), 3D7 MSP2 on CM5 chip, 50 nM 4D11 IgG
[3] = SPR competition assay (Biacore T200), 3D7 MSP2 immobilised on CM5 chip, eight three-fold dilutions of peptide from 10 µM with 50 nM 4D11 IgG, alanine scan of 16-residue MSP2_207–222

| Structure (SMILES) | Kd (4D11 IgG; [2]) [nM] | reactivity of pooled sera with 3D7 merozoites (3D7 merozoites) | specificity of the induced antibodies (peptide array A-I) [1] | Kd (4D11 IgG; [3]) [nM] | Kd (9H4 IgG) [nM] |
| --- | --- | --- | --- | --- | --- |
| CC(=O)N[C@@H](CO)C(=O)N[C@@H](CCC(N)=O)C(=O)N[C@@H](CCCCN)C(=O)N[C@@H](CCC(=O)O)C(=O)N[C@H]1CSSC[C@@H](C(=O)NCC(=O)N[C@@H](C)C(=O)N[C@@H](C)C(=O)N[C@@H](CS)C(N)=O)NC(=O)[C@H](CC(N)=O)NC(=O)[C@H](CCC(=O)O)NC(=O)[C@H](CCCCN)NC(=O)[C@H](CC(N)=O)NC(=O)CNC(=O)[C@H](CC(=O)O)NC(=O)[C@H]([C@@H](C)O)NC1=O [Peptide A1] (Ac-SQKECTDGNKENCGAAC-NH2; disulfide 5-13) | 200 | followed by K209A, A1, C1 and L1 | primarily against peptides C and D | – | – |
| C[C@@H]1NC(=O)CNC(=O)[C@@H]2CSSC[C@H](NC(=O)[C@H](CC(N)=O)NC(=O)[C@H](CCC(=O)O)NC(=O)[C@H](CCCCN)NC(=O)[C@H](CC(N)=O)NC(=O)CNC(=O)[C@H](C)NC1=O)C(=O)NCC(=O)N[C@@H](C)C(=O)N[C@@H](C)C(=O)N[C@@H](CS)C(=O)N[C@@H](CC(N)=O)C(=O)N[C@@H](CCCCN)C(=O)N[C@@H](CCC(=O)O)C(=O)N[C@@H](CC(N)=O)C(=O)N2 [Peptide C1] (cyclo(NKENCGAAGNKENCGAAC); disulfide 5-14) | 440 | followed by K209A, A1, C1 and L1 | almost exclusively directed to the 4D11 epitope | – | – |
| CC(=O)N[C@@H](CC(N)=O)C(=O)N[C@@H](CCCCN)C(=O)N[C@@H](CCC(=O)O)C(=O)N[C@@H](CC(N)=O)C(=O)N[C@H]1CSSC[C@@H](C(=O)NCC(=O)N[C@@H](C)C(=O)N[C@@H](C)C(=O)N[C@@H](CS)C(N)=O)NC(=O)[C@H](CC(N)=O)NC(=O)[C@H](CCC(=O)O)NC(=O)[C@H](CCCCN)NC(=O)[C@H](CC(N)=O)NC(=O)CNC(=O)[C@H](C)NC(=O)[C@H](C)NC(=O)CNC1=O [Peptide L1] (Ac-NKENCGAAGNKENCGAAC-NH2; disulfide 5-14) | 470 | followed by K209A, A1, C1 and L1 | almost exclusively directed to the 4D11 epitope | – | – |
| CC(=O)N[C@@H](CO)C(=O)N[C@@H](CCC(N)=O)C(=O)N[C@@H](C)C(=O)N[C@@H](CCC(=O)O)C(=O)N[C@H]1CSSC[C@@H](C(=O)NCC(=O)N[C@@H](C)C(=O)N[C@@H](C)C(N)=O)NC(=O)[C@H](CC(N)=O)NC(=O)[C@H](CCC(=O)O)NC(=O)[C@H](CCCCN)NC(=O)[C@H](CC(N)=O)NC(=O)CNC(=O)[C@H](CC(=O)O)NC(=O)[C@H]([C@@H](C)O)NC1=O [Peptide K209A] (Ac-SQAECTDGNKENCGAA-NH2; disulfide 5-13) | 200 | followed by K209A, A1, C1 and L1 | shifted antibody recognition towards the 4D11-specific epitope represented by peptides E and F | 300 | 7300 |
| CC(=O)N[C@@H](CO)C(=O)N[C@@H](CCC(N)=O)C(=O)N[C@@H](CCCCN)C(=O)N[C@@H](CCC(=O)O)C(=O)N[C@H]1CSSC[C@@H](C(=O)NCC(=O)N[C@@H](C)C(=O)N[C@@H](C)C(N)=O)NC(=O)[C@H](CC(N)=O)NC(=O)[C@H](CCC(=O)O)NC(=O)[C@H](CCCCN)NC(=O)[C@H](C)NC(=O)CNC(=O)[C@H](CC(=O)O)NC(=O)[C@H]([C@@H](C)O)NC1=O [Peptide N215A] (Ac-SQKECTDGAKENCGAA-NH2; disulfide 5-13) | – | – | – | 500 | 100 |
